Like-named read-outs stand apart in the source and are kept apart here. Residues, ends and D or L forms follow the SMILES beside them.
Key:
in vivo = conditions: pig, iv
Experimental: (§1) Approximately 3 mL of blood was taken from the carotid artery at 0, 10, 20, 30, and 60 minutes and at 60 minutes intervals thereafter until 600 minutes had passed.

[1] = 25% human serum in RPMI, 37 °C, LC-MS/MS
Experimental: Human serum (catalogue number BP2657100, Fisher Scientific, Millersburg, PA, USA) was suspended in RPMI medium up to 25%, and 0.990 mL was transferred to a 1.5 mL micro centrifuge tube. The serum-containing tube was incubated at 37 °C for 15 min, and 10 mg/mL Epi-1 was added to obtain a final peptide concentration of 100 μg/mL. At constant time intervals 100 μL of the experimental mix was taken out, and serum protein was precipitated in two volumes of 95% ethanol solution. The cloudy precipitate was cooled at 4 °C for 15 min, and then the serum was precipitated and pelleted by centrifugation at 18,000 × g for 2 min. The peptide stability in the supernatant was then analyzed by a liquid chromatography tandem mass spectrometer (LC-MS/MS) (Mission Biotech, Taipei, Taiwan).

MRSA [2] = assay type: cell-based, Staphylococcus aureus; conditions: for pathogens killed (time-kill): 4 h
Experimental: At 4, 8, 12, and 24 h post-treatment, the number of viable bacteria (CFU) was determined for the time-kill experiment.

[3] = pigs
Experimental: as §1

[4] = Acute intravenous toxicity in pigs; assay type: in vivo, pig
Experimental: Acute intravenous (i.v.) toxicity was analyzed as described previously. Acute i.v. toxicity was assessed after administration of 25, 50, 100, and 200 mg/kg body weight of Epi-1 in pigs; 1 to 5 animals per group. After injection, the animals were kept under visual observation up to 1 h, and the rate of mortality and clinical symptoms were recorded every 2 h for a total of 24 h. For blood analysis, 5 mL of heparin-stabilized blood was taken and stored at 4 °C. Serum was separated from the blood sample using a serum separator gel tube (catalogue number 367955, Becton-Dickinson, Franklin Park, NJ, USA), according to the vendor’s instructions. Serum GOT, GPT, UA, BUN, and CRT activity levels were determined using an automated analyzer (FUJI DRI-CHEM 4000i, Fujifilm, Tokyo, Japan) according to the manufacturers’ instructions. Standard controls were analyzed before each determination.

MRSA [5] = assay: Survival of MRSA-infected pyemia pigs; assay type: in vivo, pig
Experimental: Administration of bacteria or mock treatment followed by flushing with 5 mL of sterile isotonic saline was performed by i.v. through a 22G catheter inserted in the right femoral vein. The catheter was removed after administration. Another 22G catheter was then inserted into the left femoral vein and secured with stitches. The catheter was flushed with 10 mL sterile isotonic saline solution, and then with 2 mL of 100 I.U./mL sterile heparin solution (catalogue number H3149, Sigma Chemical Co., St. Louis, MO, USA) for blood sampling. During blood sampling, the initial 5 mL of blood was discarded to avoid the heparin carryover. Five pigs were inoculated with the MRSA strain (1 × 10^9 CFU/kg) only. […] Samples were subsequently collected for histopathology, microbial studies, and bacterial count.

MRSA [6] = assay: Histopathology (H&E) of major organs of infected pigs; assay type: in vivo, pig; conditions: vancomycin 0.5 mg/kg, day 7
Experimental: Tissue samples from the heart valve, left diaphragmatic lobe of the lung, left lateral lobe of the liver, and left kidney were collected and fixed in PBS buffer containing 4% formaldehyde for 24 h. Fixed samples were immersed in different concentrations of xylene and ethanol before embedding in paraffin. The processed samples were sectioned at 8–10 µm using a microtome. The sections were stained for histological analysis with hematoxylin and eosin (H&E) after rehydration.

[7] = pig, Epi-1 200 mg/kg single i.v., n=1, died in one hour after injection

CC[C@H](C)[C@H](NC(=O)[C@H](CCSC)NC(=O)[C@H](CCCCN)NC(=O)CNC(=O)[C@H](C)NC(=O)[C@H](Cc1c[nH]cn1)NC(=O)[C@H](Cc1ccccc1)NC(=O)[C@H](CC(C)C)NC(=O)CNC(=O)[C@H](CCCCN)NC(=O)[C@@H](NC(=O)[C@@H](NC(=O)[C@H](Cc1c[nH]cn1)NC(=O)[C@H](Cc1ccccc1)NC(=O)[C@@H](NC(=O)[C@H](Cc1ccccc1)NC(=O)CN)[C@@H](C)CC)[C@@H](C)CC)[C@@H](C)CC)C(=O)N[C@@H](Cc1c[nH]cn1)C(=O)NCC(=O)N[C@@H](CC(C)C)C(=O)N[C@H](C(N)=O)C(C)C [Epi-1, epinecidin-1] (H-GFIFHIIKGLFHAGKMIHGLV-NH2)
half-life (in vivo; plasma): ~4 h | level at 5 h (in vivo; serum, 0.5 mg/kg): 2920 ± 957 ng/mL | level at 10 min (in vivo; serum, 1.5 mg/kg): 9061 ± 60 ng/mL | level at 5 h (in vivo; serum, 1.5 mg/kg): 3780 ± 219 ng/mL | level at 5 h (in vivo; serum, 2.5 mg/kg): 8880 ± 205 ng/mL | concentration of free Epi-1 in serum, initial ([1]; 15 min pre-incubation, nominal 100 µg/mL, ethanol precipitation, start, mean ± SEM, three independent experiments): 7360 ± 300 ng/mL | time up to which the free Epi-1 concentration did not change (after the initial 30 min) [1]: up to 7 h | time for which Epi-1 was stable in human serum in vitro ([1]; Figure 2C): up to 400 min | concentration of free Epi-1 in serum after the initial 30 min ([1]; nominal 100 µg/mL, ethanol precipitation, 30 min, mean ± SEM, three independent experiments): 5940 ± 120 ng/mL | pathogens killed (time-kill) (MRSA [2]; 1): 90% | pathogens killed (time-kill) (MRSA [2]; 2): 90% | time post i.v. injection up to which Epi-1 is stable in serum ([3]; i.v.): up to 4 h | time post-injection up to which Epi-1 was detected in serum ([3]; i.v.): up to 240 min | BUN [4, 7]: Died | CRE [4, 7]: Died | GOT [4, 7]: Died | GPT [4, 7]: Died | Serum UA [4, 7]: Died | doses that did not cause abnormal behavior, mortality, or activity ([4]; single i.v. injection, piglets starved 12 h, observed every 2 h up to 24 h): up to 100 mg/kg

CN[C@H](CC(C)C)C(=O)N[C@H]1C(=O)N[C@@H](CC(N)=O)C(=O)N[C@H]2C(=O)N[C@H]3C(=O)N[C@H](C(=O)N[C@H](C(=O)O)c4cc(O)cc(O)c4-c4cc3ccc4O)[C@H](O)c3ccc(c(Cl)c3)Oc3cc2cc(c3O[C@@H]2O[C@H](CO)[C@@H](O)[C@H](O)[C@H]2O[C@H]2C[C@](C)(N)[C@H](O)[C@H](C)O2)Oc2ccc(cc2Cl)[C@H]1O [vancomycin]
survival against MRSA infection (MRSA [5]; MRSA 1 × 10^9 CFU/kg i.v., vancomycin 0.5 mg/kg i.v. 30 min post-infection, 7 days): 80% | Survival Rate (Day PI) (MRSA [5]; MRSA 10^9 CFU/kg i.v., vancomycin 0.5 mg/kg, n=5): 80 | Heart: infective endocarditis (animals with clinical signs/total examined) (MRSA [6]): 0/5 | Kidney: cystic tubules, cortical (animals with clinical signs/total examined) (MRSA [6]): 0/5 | Liver: liver abscess (animals with clinical signs/total examined) (MRSA [6]): 1/5 | Lung: inflammation, pulmonary edema (animals with clinical signs/total examined) (MRSA [6]): 2/5 | killing of MRSA (MRSA [2]; at 24 h, about 1 × 10^6 cells, Figure 1B): 95% | course of the serum concentration of vancomycin ([3]; vancomycin 0.5 mg/kg i.v., up to 360 min, LC-MS-MS, Supplementary Figure S1): very stable

Reference: PMC6950563, “Epinecidin-1 Protects against Methicillin Resistant Staphylococcus aureus Infection and Sepsis in Pyemia Pigs” (Marine Drugs, 2019)
